The target in assay [1] is TEAD1 protein (YAP Binding Domain) (Homo sapiens, UniProt P28347). Kind of assay: biochemical.
Experimental: Compound Displacement Assay.
A TEAD1 lipid pocket displacement assay was carried out according to the following protocol. Purified His-tagged TEAD1 protein (YAP Binding Domain) was pre-mixed with a Cy5-probe (Cy5-conjugated to a small molecule that binds in the TEAD1 lipid pocket) and Terbium-labeled anti-His antibody (Cisbio Cat 61HI2TLB). The binding of the Cy5-probe to anti-His-Tb/His-tag TEAD1 complex yielded a TR-FRET signal. […] After 60 minutes incubation at room temperature of compounds with the His-TEAD1/anti-His-Tb/Cy5-probe complex, the plate was read on a plate reader (BMG ClarioStar Cat 430-1300) using TR-FRET mode with wavelengths of 665 nm/620 nm. The potency of compounds as TEAD1 lipid pocket binders was determined by IC50 value generated using a non-linear 4 parameter curve fit.
The test system of assay [2] is mesothelioma cell line NCI-H226. Kind of assay: 72H TEAD Proliferation Assay (Cell Titer-Glo 2.0). Type of assay: cell-based. The settings on record: Homo sapiens, CTG 2.0, cell line not given in Table 1 (NCI-H226 TEAD-responsive, NCI-H28 non-responsive counter-screen). As to the method:
72H TEAD Proliferation Assay.
The effect of TEAD inhibition on cell proliferation was assayed using Cell Titer Glo (CTG) 2.0 to measure response in mesothelioma cell lines NCI-H226 (ATCC, #CRL-5826) and NCI-H28 (ATCC, #CRL-5820).
The 72H TEAD Proliferation assay utilizes Cell Titer-Glo 2.0 (Promega, #G9243) to measure the proliferation of cells in the presence or absence of compound. Cell Titer-Glo 2.0 determines the amount of viable cells by quantifying ATP (an indication of metabolically active cells). It utilizes the conversion of Luciferin to Oxyluciferin and a luminescent signal with the use of ATP to report the quantity of viable cells in culture. Within cells that are continually growing, ATP is being synthesized to meet their metabolic demands, meanwhile the opposite is true for cells that are dying or slowing down their proliferation and either no longer using ATP or are using less, respectively. The NF2-deficient NCI-H226 has been genetically validated as a cell line that is sensitive to TEAD inhibition. The NF2-wild type NCI-H28 has been genetically validated as a cell line that is not sensitive to TEAD inhibition and grows independently of TEAD activity.
Compounds were screened against the responsive NCI-H226 cell line to assess the compounds' ability to inhibit TEAD and cell growth. Compounds were also screened against the non-responsive NCI-H28 cell line to ascertain whether the inhibition of cell growth was due to inhibition of the target TEAD or whether the inhibition was due to off-target cytotoxicity.
Both NCI-H226 and NCI-H28 cells were grown at 37° C. with 5% CO2 using Growth Medium 1.
Anti-proliferative effect of compounds that inhibits TEAD activity measured by CTG
1) Assay ready plates (ARPs) were prepared by Echo acoustic liquid handler. For each compound, duplicate of 10-point half-log dilution series were dispensed in a 384-well microplate (Corning 3571).
3) Before use, ARPs were allowed to warm up to room temperature for 30 min.
4) ARPs were spun for 5 minutes at 1500RPM before removing the plate seals.
5) NCI-H226 or NCI-H28 cells were harvested from culture in Assay Medium 1 and the multidrop Combi reagent dispenser was used to seed cells at 500 cells per 50ul in each well of the ARPs and one Corning 3571 plate without compounds for Time 0 (TO) readout.
6) The TO plate was incubated for 2 hours at 37° C. with 5% CO2 to allow cells to settle, then the CTG Assay was performed.
7) All ARPs were incubated for 72 hours at 37° C. with 5% CO2, then the CTG Assay was performed for Time 72H (T72) readout.
8) CTG Assay: Bravo liquid handler (Agilent) was used to add 25ul of CTG 2.0 to all columns of the plate except for Column 24, which was used to subtract out the background. After CTG addition, plates were placed on shaker at 800RPM for 15 minutes at room temperature and kept in the dark. Luminescence was measured using EnVision multilabel plate reader with ultra-sensitive detection module.
9) Data Analysis: First background luminescence (no CTG wells) was subtracted from luminescence reading of all wells, then TO luminescence was subtracted from T72 luminescence. To compare anti-proliferative effect of compounds, GI50 was obtained by fitting dose response curves with nonlinear regression curve fit.
(In general: In ATP-based viability assays light output follows the ATP content of the culture.)

Each structure is given as a SMILES string.

Sequence of TEAD1 protein (YAP Binding Domain) (P28347 167-426 limits assumed): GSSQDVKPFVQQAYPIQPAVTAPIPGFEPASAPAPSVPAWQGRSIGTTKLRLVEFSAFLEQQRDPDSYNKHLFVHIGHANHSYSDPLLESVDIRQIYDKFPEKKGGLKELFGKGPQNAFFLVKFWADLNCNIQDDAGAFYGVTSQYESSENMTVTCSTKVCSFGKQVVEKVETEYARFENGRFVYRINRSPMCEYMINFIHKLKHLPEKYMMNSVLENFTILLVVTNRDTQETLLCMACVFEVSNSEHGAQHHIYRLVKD

Consider `C#Cc1cccc2cc(C(=O)N[C@@H](C)c3ccccn3)cnc12` [Compound 30, (S)-8-ethynyl-N-(1-(pyridin-2-yl)ethyl)quinoline-3-carboxamide], for which the IC50 (as a rule, the concentration that inhibits the measured activity by half) in assay [1] was > 500 nM. The GI50 (commonly the concentration giving 50% growth inhibition) in assay [2] is > 5000 nM.

For `C[C@H](NC(=O)c1cnc2c(C#CC(C)(C)C)cccc2c1)c1ccccn1` [Compound 31, (S)-8-(3,3-dimethylbut-1-yn-1-yl)-N-(1-(pyridin-2-yl)ethyl)quinoline-3-carboxamide], the IC50 in assay [1] is > 500 nM. In assay [2], the concentration for 50% growth inhibition (GI50) was in the range of 1000 to 5000 nM.

As for `COc1ccc2c(N3CCC(C(F)(F)F)CC3)nc(C(=O)N[C@H](C)CO)cc2c1` [Compound 67, (R)-N-(1-hydroxypropan-2-yl)-6-methoxy-1-(4-(trifluoromethyl)piperidin-1-yl)isoquinoline-3-carboxamide], in assay [1], the IC50 was > 500 nM. For the same compound, in assay [2], the 50% growth inhibitory concentration (GI50) was > 5000 nM.

Turning to `COc1ccc2c(N3CCC(C(F)(F)F)CC3)nc(C(=O)O)cc2c1` [Compound 68, 6-methoxy-1-(4-(trifluoromethyl)piperidin-1-yl)isoquinoline-3-carboxylic acid], in assay [1], the IC50 was > 500 nM. Besides, the GI50 in assay [2] was > 5000 nM.

Take `COc1cc(N2CCC(C(C)(C)C)CC2)c2ncc(C(=O)N[C@H](C)CO)cc2c1` [Compound I-2, (R)-8-(4-(tert-butyl)piperidin-1-yl)-N-(1-hydroxypropan-2-yl)-6-methoxyquinoline-3-carboxamide]: the half-inhibitory concentration (IC50) in assay [1] was in the range of 300 to 500 nM. The concentration for 50% growth inhibition (GI50) in assay [2] is ≤ 500 nM.

Regarding `COc1cc(N2CCC3(CC2)CC3)c2ncc(C(=O)N[C@H](C)CO)cc2c1` [Compound I-3, (R)-N-(1-hydroxypropan-2-yl)-6-methoxy-8-(6-azaspiro[2.5]octan-6-yl)quinoline-3-carboxamide], the IC50 in assay [1] was 150 to 300 nM. The GI50 in assay [2] was in the range of 500 to 1000 nM.

In assay [1], `COc1cc(N2CCC3(CCCC3)CC2)c2ncc(C(=O)N[C@H](C)CO)cc2c1` [Compound I-4, (R)-N-(1-hydroxypropan-2-yl)-6-methoxy-8-(8-azaspiro[4.5]decan-8-yl)quinoline-3-carboxamide] yielded an IC50 of 150 to 300 nM. The same compound yielded a 50% growth inhibitory concentration (GI50) in assay [2] of 500 to 1000 nM.

In the case of `COC[C@H](C)NC(=O)c1cnc2c(N3CCC(CC(F)(F)F)CC3)cc(OC)cc2c1` [Compound I-5, (S)-6-methoxy-N-(1-methoxypropan-2-yl)-8-(4-(2,2,2-trifluoroethyl)piperidin-1-yl)quinoline-3-carboxamide], the half-maximal inhibitory concentration (IC50) in assay [1] was < 150 nM. Further, the GI50 in assay [2] lay within 1000 to 5000 nM.

As for `COc1cc(N2CCC3(CC2)CC(F)(F)C3)c2ncc(C(=O)N[C@H](C)CO)cc2c1` [Compound I-6, (R)-8-(2,2-difluoro-7-azaspiro[3.5]nonan-7-yl)-N-(1-hydroxypropan-2-yl)-6-methoxyquinoline-3-carboxamide], in assay [1], the IC50 was < 150 nM. The compound also yielded a concentration for 50% growth inhibition (GI50) in assay [2] of 500 to 1000 nM.

Turning to `COc1cc(N2CCC(C(F)F)CC2)c2ncc(C(=O)N[C@H](C)CO)cc2c1` [Compound I-7, (R)-8-(4-(difluoromethyl)piperidin-1-yl)-N-(1-hydroxypropan-2-yl)-6-methoxyquinoline-3-carboxamide], the IC50 in assay [1] was 150 to 300 nM. In assay [2], this compound came in with a GI50 of 1000 to 5000 nM.

As to `COc1cc(N2CCN(CC(F)(F)F)CC2)c2ncc(C(=O)N[C@H](C)CO)cc2c1` [Compound I-8, (R)-N-(1-hydroxypropan-2-yl)-6-methoxy-8-(4-(2,2,2-trifluoroethyl)piperazin-1-yl)quinoline-3-carboxamide], the IC50 in assay [1] was > 500 nM. Also, in assay [2], the GI50 was > 5000 nM.

In turn, `COC[C@H](C)NC(=O)c1cnc2c(N3CCC(C(F)(F)F)CC3)cc(OC)cc2c1` [Compound I-9, (S)-6-methoxy-N-(1-methoxypropan-2-yl)-8-(4-(trifluoromethyl)piperidin-1-yl)quinoline-3-carboxamide] came in with an IC50 in assay [1] of 150 to 300 nM. Besides, the 50% growth inhibitory concentration (GI50) in assay [2] was ≤ 500 nM.

`COc1cc(N2CCC(C(F)(F)F)CC2)c2ncc(C(=O)NC(C)(C)CO)cc2c1` [Compound I-10, N-(1-hydroxy-2-methylpropan-2-yl)-6-methoxy-8-(4-(trifluoromethyl)piperidin-1-yl)quinoline-3-carboxamide]: the IC50 in assay [1] is 300 to 500 nM. In addition, the GI50 in assay [2] was 1000 to 5000 nM.

For the compound `COc1cc(N2CCC(C(F)(F)F)CC2)c2ncc(C(=O)N3CC(O)C3)cc2c1` [Compound I-11, (3-hydroxyazetidin-1-yl)(6-methoxy-8-(4-(trifluoromethyl)piperidin-1-yl)quinolin-3-yl)methanone], the IC50 in assay [1] is > 500 nM. The 50% growth inhibitory concentration (GI50) in assay [2] was 1000 to 5000 nM.

`COc1cc(N2CCC(C(F)(F)F)CC2)c2ncc(C(=O)N[C@@H](C)COC(F)(F)F)cc2c1` [Compound I-12, (S)-6-methoxy-N-(1-(trifluoromethoxy)propan-2-yl)-8-(4-(trifluoromethyl)piperidin-1-yl)quinoline-3-carboxamide]: in assay [1], the IC50 was > 500 nM. Moreover, the concentration for 50% growth inhibition (GI50) in assay [2] was ≤ 500 nM.

As for `CC[C@H](CO)NC(=O)c1cnc2c(N3CCC(C(F)(F)F)CC3)cc(OC)cc2c1` [Compound I-13, (R)-N-(1-hydroxybutan-2-yl)-6-methoxy-8-(4-(trifluoromethyl)piperidin-1-yl)quinoline-3-carboxamide], the IC50 in assay [1] was < 150 nM. The GI50 in assay [2] was ≤ 500 nM.

For the compound `CC[C@@H](CO)NC(=O)c1cnc2c(N3CCC(C(F)(F)F)CC3)cc(OC)cc2c1` [Compound I-14, (S)-N-(1-hydroxybutan-2-yl)-6-methoxy-8-(4-(trifluoromethyl)piperidin-1-yl)quinoline-3-carboxamide], the IC50 in assay [1] fell in the range of 150 to 300 nM. The compound also came in with a GI50 in assay [2] of 1000 to 5000 nM.

In the case of `COc1cc(-c2ccc(OC(F)(F)F)cc2)c2ncc(C(=O)N[C@H](C)CO)cc2c1` [Compound I-15, (R)-N-(1-hydroxypropan-2-yl)-6-methoxy-8-(4-(trifluoromethoxy)phenyl)quinoline-3-carboxamide], the IC50 in assay [1] was < 150 nM. The concentration for 50% growth inhibition (GI50) in assay [2] was ≤ 500 nM.

`COc1cc(-c2ccc(OC(C)(C)C)cc2)c2ncc(C(=O)N[C@H](C)CO)cc2c1` [Compound I-16, (R)-8-(4-(tert-butoxy)phenyl)-N-(1-hydroxypropan-2-yl)-6-methoxyquinoline-3-carboxamide] gave an IC50 in assay [1] of 150 to 300 nM. In assay [2], this compound came in with a 50% growth inhibitory concentration (GI50) of 1000 to 5000 nM.

`COc1cc(-c2ccc(OC(F)F)cc2)c2ncc(C(=O)N[C@H](C)CO)cc2c1` [Compound I-17, (R)-8-(4-(difluoromethoxy)phenyl)-N-(1-hydroxypropan-2-yl)-6-methoxyquinoline-3-carboxamide]: the IC50 in assay [1] is < 150 nM. In assay [2], the concentration for 50% growth inhibition (GI50) was ≤ 500 nM.

`COc1cc(-c2ccc(OC(F)(F)F)cc2F)c2ncc(C(=O)N[C@H](C)CO)cc2c1` [Compound I-21, (R)-8-(2-fluoro-4-(trifluoromethoxy)phenyl)-N-(1-hydroxypropan-2-yl)-6-methoxyquinoline-3-carboxamide]: the concentration for 50% growth inhibition (GI50) in assay [2] is ≤ 500 nM.

Compound `C[C@H](CO)NC(=O)c1cnc2c(N3CCC4(CC3)CC4)cc(OC(F)F)cc2c1` [Compound I-27, (R)-6-(difluoromethoxy)-N-(1-hydroxypropan-2-yl)-8-(6-azaspiro[2.5]octan-6-yl)quinoline-3-carboxamide] yielded a GI50 in assay [2] of 1000 to 5000 nM.

Regarding `CC(CO)NC(=O)c1ccc2c(OCc3ccc(C(F)(F)F)cc3)cccc2c1` (stereo not shown) [Compound I-44, N-(1-hydroxypropan-2-yl)-5-((4-(trifluoromethyl)benzyl)oxy)-2-naphthamide], the 50% growth inhibitory concentration (GI50) in assay [2] is > 5000 nM.

Source of the values: patent publication US20230053649A1 (Cedilla Therapeutics, Inc., priority 2021, published 2023).
